In US11028137B2, “Mutant islet amyloid polypeptides with improved solubility and methods for using the same” (priority 2017, dated 2021):
Where a SMILES comes first, the peptide text is derived from it.

Experiments:
[1] = Thioflavin-T fluorescence assay of amyloid formation kinetics; type: physicochemical; settings: 16 μM peptide, 10 mM PBS pH 7.4, 25° C., no stirring; 1 week and 6 week incubations
Description: Sample Preparation. Each peptide was dissolved into 100% hexafluoroisoproponal (HFIP) to make a 0.5 mM stock solution. Stock solutions were filtered using […] Acrodisc syringe filter with a GHP membrane and the required amount of peptide was lyophilized overnight to remove HFIP. Dry peptide was dissolved into the appropriate buffer for the fluorescence assays. Fluorescence Assays. Thioflavin-T binding assays, conducted without HFIP or stirring at 25° C., were utilized to monitor amyloid formation kinetics. Fluorescence measurements were performed using a Spectramax Gemini EM plate reader. Corning 96-well non-binding surface black plates with lids were used and were sealed with polyethylene sealing tape. Samples were prepared by dissolving dry peptide into 10 mM PBS buffer (pH 7.4) and 32 μM thioflavin-T solution immediately before the measurement. Thioflavin-T fluorescence was measured with 450 nm excitation and emission at 485 nm was monitored. The final concentrations were 16 μM peptides. After creating the mutant-hIAPP polypeptides of the present disclosure, applicants tested the propensity of the different analogs to form amyloid at pH 7.4 using thioflavin-T fluorescence assays (FIGS. 2A-D) and TEM (FIGS. 3A-E). […] Amyloid formation follows a sigmoidal time course consisting of a lag phase in which few, if any, fibrils are formed, followed by a growth phase and a saturation phase in which amyloid fibrils are in equilibrium with soluble peptide.

[2] = Transmission electron microscopy (TEM) of amyloid aggregates; type: physicochemical; settings: after 7 days of incubation, end of kinetic experiment
Description: Transmission Electron Microscopy (TEM). TEM images were recorded using an FEI Bio TwinG^2 Transmission Electron Microscope at the central microscopy center at Stony Brook University. 15 μL aliquots of the samples used for fluorescence assays were removed at the end of each kinetic experiment, blotted on a carbon formvar-coated 300-mesh copper grid for 1 min and then negatively stained with saturated uranyl acetate for 1 min. Images were taken at a 68,000× magnification and 100 nm under focus. Mutant-hIAPP polypeptides of the present disclosure were further analyzed using TEM. […] In contrast, no amyloid fibrils were formed after a 1 week (FIGS. 3B-E, left) or 6 week (FIGS. 3B-E, right) culture with the any of the mutant-hIAPP analogs tested.

[3] = target: T1, human amylin receptor (hAMY1(a)) (Homo sapiens, UniProt O60894+P30988); experiment: cAMP production (LANCE cAMP assay) in transfected Cos-7 cells; type: cell-based; settings: cAMP production, Cos-7 cells expressing hAMY1(a); mean ± spread; read-out: Human Amylin1(a) receptor binding data pEC50 (converted)
T1 construct: expressed in transfected cells; host or cells: Cos-7 cells, transient transfection with PEI, pcDNA3.1 vectors
Description: (§1) Cell Culture and Transfection. Cos-7 cells were cultured and transfected for receptor activity assays as previously described in Bailey, R. J., and Hay, D. L. Peptides (2006) 27, pp. 1367-1375, the entire contents of which is incorporated herein by reference. Specifically, cells were cultured in Dulbucco's modified eagle medium (DMEM) with 8% heat-inactivated fetal bovine serum (FBS) and kept in a 37° C. humidified 95% air/5% CO2 incubator. Cells were plated at a density of 18,000-20,000 cells/well (depending on cell passage) in 96-well culture plate and returned to the incubator for approximately 18-24 hours. Transient transfections were carried out using polyethyleneimine (PEI) as described previously and maintained at 37° C. in a humidified 95% air/5% CO2 incubator for 36-48 hours. All DNA constructs used in this these were in pcDNA3.1 vectors.
(§2) cAMP Assay: Measurement of intracellular cAMP was achieved using a time-resolved fluorescent resonance energy transfer assay (LANCE cAMP assay, PerkinElmer), similar to the previously described Alphascreen assay as described in Gingell, J. J., et al. Peptides (2010) 31, pp. 1400-1404, with the following changes. Following stimulation with peptide agonist, cAMP assay media from the wells was thoroughly aspirated and 50 μl of ice-cold absolute ethanol added to each well. Plates were then placed in a −30° C. freezer for 10 minutes or overnight prior to assay, then removed and allowed to air dry in a fume hood for 1-2 hours. After ethanol evaporated from the plates, 50 μl of LANCE detection buffer (lysis buffer, 0.35% Triton X-100, 50 mM HEPES and 10 mM calcium chloride in ddH2O, pH 7.4) was added per well and left on a plate shaker for 10-15 minutes at room temperature. Meanwhile, a cAMP standard curve was generated using LANCE detection buffer and a serially diluted cAMP standard (50 μM) ranging from 1 μM to 10 pM. The serially diluted cAMP standards (5 μl) and cell lysates (5 μl) were transferred into 384-well opti-plates and sealed with a Sealplate®-A-384-well microplate adhesive film and briefly centrifuged (10 seconds, 500 rpm, 23° C.). A 1:200 dilution of LANCE assay Alexa Fluor® 647 anti-cAMP antibody was prepared in detection buffer and 5 μl added to each well. Plates were sealed and briefly centrifuged again (10 seconds, 500 rpm, 23° C.) and left to incubate, sealed for 30 minutes at room temperature. During this incubation, detection mix was made up consisting of detection buffer, Europium-W8044 labelled streptavidin (1:4500) and biotin-cAMP (1:1500). After 30 minutes incubation, 10 μl of detection mix was added to each well, plates were centrifuged (30 seconds, 500 rpm, 23° C.), sealed and left to incubate for 1 hour at room temperature. Plates were read after an overnight incubation on an Envision plate reader. A standard curve was included in each experiment to ensure accurate quantification of cAMP.
(§3) Data Analysis for Receptor Assays: Data were derived from independent experiments for statistical analysis and all experiments were performed and replicated. Quantification of cAMP was obtained from a standard curve included in each experiment and plotted using the software GraphPad Prism 6.0 (GraphPad Software Inc, San Diego, Calif., USA) with a non-linear regression 3-parameter logistic equation with a Hill Slope of 1 to determine the pEC50. The pEC50 values from the fits were combined from different experimental days and statistically tested for difference from the WT peptide using the Student's t-test with statistical significance defined as * p<0.05, ** p<0.01, *** p<0.001. Due to variability in amount of cAMP produced between experimental days, data were normalized to the control peptide for each experiment to obtain Emax values. For each analogue, data were normalized to the maximum (Emax) and minimum (Emin) responses of h-amylin. […]

[4] = target: T2, human calcitonin receptor (hCT(a)) (Homo sapiens, UniProt P30988); experiment: as above; type: cell-based; settings: cAMP production, Cos-7 cells expressing hCT(a); mean ± spread; read-out: Human calcitonin receptor binding data pEC50 (converted)
T2 construct: expressed in transfected cells; host or cells: Cos-7 cells, transient transfection with PEI, pcDNA3.1 vectors
T2 sequence (P30988 25-474): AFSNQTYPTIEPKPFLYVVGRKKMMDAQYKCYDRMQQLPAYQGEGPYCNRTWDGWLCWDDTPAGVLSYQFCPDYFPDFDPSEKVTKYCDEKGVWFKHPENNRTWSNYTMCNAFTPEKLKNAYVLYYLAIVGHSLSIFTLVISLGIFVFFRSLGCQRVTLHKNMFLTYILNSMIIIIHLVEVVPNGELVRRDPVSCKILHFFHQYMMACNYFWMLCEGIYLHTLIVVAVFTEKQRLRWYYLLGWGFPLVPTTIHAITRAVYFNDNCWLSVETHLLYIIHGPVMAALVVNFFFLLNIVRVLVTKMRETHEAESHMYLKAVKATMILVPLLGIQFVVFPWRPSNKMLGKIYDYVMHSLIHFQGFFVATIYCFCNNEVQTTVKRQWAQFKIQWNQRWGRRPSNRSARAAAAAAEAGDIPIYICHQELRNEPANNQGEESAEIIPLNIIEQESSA
Description: as §1, §2, §3

[5] = pH 7.4
Description: Dry peptides were dissolved into 10 mM PBS buffer at pH 7.4 at different initial concentrations, and were incubated for 7 days at 25° C. without stirring. Each sample was then centrifuged using a Beckman Coulter Microfuge 22R Centrifuge at 24° C. for 20 min. The relative centrifugal force used was 1.75×10^4 g. Solubility of each sample was approximated by measuring the absorbance of the corresponding supernatant at 280 nm measured using a Beckman Coulter DU 730 UV/Vis Spectrophotometer.
Each peptide tested was incubated in 10 mM PBS buffer at pH 7.4 for 7 days at three different concentrations (100 μM, 500 μM and 1 mM) and the solution was then centrifuged. The apparent solubility was represented by the absorbance of the supernatant of each sample measured at 280 nm. The extinction coefficients of all polypeptides are very similar at 280 nm since they all contain the same aromatic residues and each contains a disulfide bond. […] A peptide which is soluble at 1 mM and above will show a linear dependence of absorbance on initial concentration. A peptide which is less soluble will deviate from linearity. The peptides were centrifuged after 7 days and their apparent solubility measured by measuring the absorbance at 280 nm of the supernatant of each solution. The apparent concentration refers to the concentration which would be obtained if all of the peptide dissolved. The absorbance of the supernatant is directly proportion to the amount of peptide in solution.

[6] = pH 7
Description: 100 μL each solution was obtained immediately following dissolution with Novolin-N® and was centrifuged using a Beckman Coulter Microfuge (22R Centrifuge) at 24° C. for 20 minutes. The relative centrifugal force used was 1.75×104 g. Aliquots of each sample were immediately frozen and lyophilized. The remaining portion of each sample was not centrifuged and were incubated at 25° C. without stirring. Samples were collected again following the same procedures after 1 day, 7 days and 30 days. Dry samples were redissolved in 4:1 HPLC buffer mix (4A:1B, below) and immediately injected for liquid chromatography-mass spectroscopy (LC-MS) measurements. The HPLC buffers were (A) H2O (0.1% acetic acid and 0.02% TFA) and (B) CH3CN (0.1% acetic acid and 0.02% TFA). Solubility of each co-formulated sample was determined by measuring the absorbance from the liquid chromatogram traces at 215±8 nm and at 277±8 nm at each time point tested. points (0 hours, 24 hours, 7 days and 30 days post-formulation).

T1 sequence (O60894 27-148 partner, one chain of several): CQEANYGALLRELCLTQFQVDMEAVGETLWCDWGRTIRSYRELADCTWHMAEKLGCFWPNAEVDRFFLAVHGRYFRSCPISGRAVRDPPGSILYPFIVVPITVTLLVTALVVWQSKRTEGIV

## CC(C)C[C@H](NC(=O)[C@H](CCCNC(=N)N)NC(=O)[C@H](CCC(N)=O)NC(=O)[C@@H](NC(=O)[C@H](C)NC(=O)[C@@H]1CSSC[C@H](NC(=O)[C@@H](N)CCCCN)C(=O)N[C@@H](CC(N)=O)C(=O)N[C@@H]([C@@H](C)O)C(=O)N[C@@H](C)C(=O)N[C@@H]([C@@H](C)O)C(=O)N1)[C@@H](C)O)C(=O)N[C@@H](C)C(=O)N[C@@H](CC(N)=O)C(=O)N[C@@H](Cc1ccccc1)C(=O)N[C@@H](CC(C)C)C(=O)N[C@H](C(=O)N[C@@H](Cc1c[nH]cn1)C(=O)N[C@@H](CO)C(=O)N[C@@H](CO)C(=O)N[C@@H](CCCCN)C(=O)N[C@@H](CC(N)=O)C(=O)N[C@@H](Cc1ccccc1)C(=O)N1CCC[C@H]1C(=O)N[C@@H](C)C(=O)N1CCC[C@H]1C(=O)N[C@@H](CC(C)C)C(=O)N[C@@H](CO)C(=O)N[C@@H](CO)C(=O)N[C@H](C(=O)N[C@@H](CC(N)=O)C(=O)N[C@H](C(=O)NCC(=O)N[C@@H](CO)C(=O)N[C@@H](CCCCN)C(=O)N[C@H](C(=O)N[C@@H](Cc1ccc(O)cc1)C(N)=O)[C@@H](C)O)C(C)C)[C@@H](C)O)C(C)C [SEQ ID NO: 8] (HELM PEPTIDE1{K.C.N.T.A.T.C.A.T.Q.R.L.A.N.F.L.V.H.S.S.K.N.F.P.A.P.L.S.S.T.N.V.G.S.K.T.Y.[am]}$PEPTIDE1,PEPTIDE1,2:R3-7:R3$$$V2.0)
[1]
  amyloid formation monitored by thioflavin-T fluorescence: none of the mutant hIAPP polypeptides forms amyloid
[2]
  amyloid aggregates in TEM images: no aggregates are observed
[3]
  EC50: 1.78 nM
[4]
  EC50: 10.7 nM
[5]
  solubility at neutral pH (absorbance of supernatant at 280 nm): more substantially soluble than wild-type hIAPP
[6]
  solubility co-formulated with Novolin-N (absorbance at 215 nm and 277 nm, LC-MS): significantly higher absorbance when compared to both wild-type hIAPP and paramlintide
